Assay results reported in patent US20250009746A1, “COMBINATION THERAPY FOR TREATING ABNORMAL CELL GROWTH” (Verastem, Inc., priority 2021, published 2025).
“Also recorded” adds a separate entry of the source.

How the values were obtained:
Assay type in all cases: cell-based
[1] = test system: BRAF V600E human melanoma cell lines; assay: 3D proliferation assay (CellTiter-Glo) with synergy analysis, BRAF V600E melanoma panel
Method: (§1) As examples, BRAF V600E human melanoma, BRAF V600E human colorectal carcinoma (CRC), and NRAS mutant human melanoma cell lines were grown in 3D conditions. Briefly, 96-well plates were coated with 50 μL of Matrigel (100%) and incubated at 37° C. and 5% CO2 for 30 min in order for the Matrigel to solidify. Cells were seeded in 100 μL of 2% Matrigel containing medium. After an overnight incubation (17-22 hours), cells were treated with VS-6766+/−BRAF V600 inhibitor (e.g., vemurafenib, dabrafenib, encorafenib), VS-6766+/−pan-RAF inhibitor (e.g., belvarafenib, naporafenib, lifirafenib, tovorafenib), or MEK inhibitor (e.g., cobimetinib, trametinib, binimetinib)+/−BRAF (e.g., vemurafenib, dabrafenib, encorafenib) inhibitor for 7 days. VS-6766 and MEK inhibitors were used at 1:5 dilutions starting at 5 μM. BRAF V600 inhibitors and pan-RAF inhibitors were used at 1:3 dilutions starting at 5 μM. Cell viability was measured using the cell viability CellTiter-Glo assay.
(§2) Raw data and metadata files were processed with a custom R-script for single agent and combination activity. Bliss, Loewe, Highest Single Agent (HSA) and ZIP synergy analysis were performed to generate a composite synergy score. Summary graphics and reports were saved for visualization and further analysis.

[2] = test system: BRAF V600E human colorectal carcinoma (CRC) cell lines; assay: 3D proliferation assay (CellTiter-Glo) with synergy analysis, BRAF V600E CRC panel
Method: as §1, §2

[3] = test system: NRAS mutant human melanoma cell lines; assay: 3D proliferation assay (CellTiter-Glo) with synergy analysis, NRAS mutant melanoma panel; settings: VS-6766 + pan-RAF inhibitor (e.g., belvarafenib, naporafenib, lifirafenib, tovorafenib); 7 days; 3 NRAS mutant melanoma cell lines; Bliss, Loewe, HSA, ZIP (FIGS. 7, 8)
Method: as §1, §2

Compound: CNS(=O)(=O)Nc1nccc(Cc2c(C)c3ccc(Cc4ncccn4)cc3oc2=O)c1F [VS-6766]
- synergy of VS-6766+BRAFi compared with synergy of MEKi+BRAFi ([1]; BRAF V600E melanoma cell lines, composite synergy score (FIG. 1)): better
- synergy of VS-6766+vemurafenib compared with synergy of cobimetinib+vemurafenib ([1]; BRAF V600E melanoma cell lines, dose-response matrices, each agent starting at 5 μM, Bliss synergy shown (FIG. 2)): better
- synergy of VS-6766+dabrafenib compared with synergy of trametinib+dabrafenib ([1]; BRAF V600E melanoma cell lines, dose-response matrices, each agent starting at 5 μM, Bliss synergy shown (FIG. 3)): better
- synergy with BRAF V600 inhibitors in reducing cell viability ([1]; VS-6766 + BRAF V600 inhibitor (e.g., vemurafenib, dabrafenib, encorafenib), 7 days, 5 BRAF V600E melanoma cell lines, Bliss, Loewe, HSA, ZIP composite synergy score): synergistic
- synergy of VS-6766+BRAFi compared with synergy of MEKi+BRAFi ([2]; BRAF V600E colorectal carcinoma cell lines, composite synergy score (FIG. 4)): better
- synergy of VS-6766+vemurafenib compared with synergy of cobimetinib+vemurafenib ([2]; BRAF V600E colorectal carcinoma cell lines, dose-response matrices, each agent starting at 5 μM, Bliss synergy shown (FIG. 5)): better
- synergy of VS-6766+dabrafenib compared with synergy of trametinib+dabrafenib ([2]; BRAF V600E colorectal carcinoma cell lines, dose-response matrices, each agent starting at 5 μM, Bliss synergy shown (FIG. 6)): better
- synergy with BRAF V600 inhibitors in reducing cell viability ([2]; VS-6766 + BRAF V600 inhibitor (e.g., vemurafenib, dabrafenib, encorafenib), 7 days, 3 BRAF V600E CRC cell lines, Bliss, Loewe, HSA, ZIP composite synergy score): synergistic
- synergy with pan-RAF inhibitors in reducing cell viability [3]: strong synergy; also recorded: synergistic
